Reference: ChEMBL document CHEMBL5370563, “Molecular Networking-Guided Isolation of Cyclopentapeptides from the Hydrothermal Vent Sediment Derived Fungus Aspergillus pseudoviridinutans TW58-5 and Their Anti-inflammatory Effects” (J Nat Prod, 2023)
Active and inactive are the calls of the source. No cut-off for these calls is given here.

Assays:
RAW264.7 [1] = assay: Antiinflammatory activity in LPS-induced mouse RAW264.7 cells assessed as inhibition of NO production at 20 uM measured after 24 hrs by Griess reagent based assay; format: functional, cell-based
RAW264.7 [2] = assay: Cytotoxicity against LPS-induced mouse RAW264.7 cells assessed as reduction in cell viability at 20 uM incubated for 24 hrs by MTT assay; format: toxicity, cell-based; settings: raw264.7, 24 h
RAW264.7 [3] = assay: Antiinflammatory activity in LPS-induced mouse RAW264.7 cells assessed as reduction in iNOS protein expression at 20 uM measured after 24 hrs by Western blot analysis; format: functional, cell-based
RAW264.7 [4] = assay: Antiinflammatory activity in LPS-induced mouse RAW264.7 cells assessed as inhibition of NLRP3 protein expression at 20 uM measured after 24 hrs by Western blot analysis; format: functional, cell-based
RAW264.7 [5] = assay: Antiinflammatory activity in LPS-induced mouse RAW264.7 cells assessed as inhibition of NO production measured after 24 hrs by Griess reagent based analysis; format: functional, cell-based; settings: dose 0.1-20 µM

| SMILES | Activity (RAW264.7 [1]) | Activity (RAW264.7 [2]) | Activity (RAW264.7 [3]) | Activity (RAW264.7 [4]) | Activity (RAW264.7 [5]) |
| --- | --- | --- | --- | --- | --- |
| CC[C@@H](C)[C@H]1NC(=O)CNC(=O)[C@H](CC(C)C)NC(=O)c2cccc(O)c2NC(=O)[C@H]([C@H](C)c2ccc(OC)cc2)NC1=O | Active | Non-Toxic |  |  |  |
| COc1ccc([C@@H](C)[C@@H]2NC(=O)[C@@H](C(C)C)NC(=O)CNC(=O)[C@H](CCC(C)C)NC(=O)c3cccc(O)c3NC2=O)cc1 | Active | Non-Toxic |  |  |  |
| CC[C@H](C)[C@H]1NC(=O)CNC(=O)[C@H](Cc2ccccc2)NC(=O)c2cccc(O)c2NC(=O)[C@H]([C@H](C)c2ccc(OC)cc2)NC1=O | Active | Non-Toxic |  |  |  |
| CC[C@H](C)[C@H]1NC(=O)CNC(=O)[C@H](CCC(C)C)NC(=O)c2cccc(O)c2NC(=O)[C@H]([C@H](C)c2ccc(OC)cc2)NC1=O | Active | Non-Toxic |  |  |  |
| COc1ccc([C@@H](C)[C@@H]2NC(=O)[C@@H](CC(C)C)NC(=O)CNC(=O)[C@H](CCC(C)C)NC(=O)c3cccc(O)c3NC2=O)cc1 | Active | Non-Toxic |  |  |  |
| COc1ccc([C@@H](C)[C@@H]2NC(=O)[C@@H](CC(C)C)NC(=O)CNC(=O)[C@@H](Cc3ccccc3)NC(=O)c3cccc(O)c3NC2=O)cc1 | Active | Non-Toxic | Active | Active | Dose-Dependent Effect |
| COc1ccc([C@@H](C)[C@@H]2NC(=O)[C@@H](C(C)C)NC(=O)CNC(=O)[C@H](Cc3ccccc3)NC(=O)c3cccc(O)c3NC2=O)cc1 | Active | Non-Toxic |  |  |  |
